Experimental data as given in patent US9896491B2, “Composition for treatment of multiple sclerosis” (LIFEBIO LABORATORIES LLC, priority 2009, dated 2018).

Assays:
[1] = system: Experimental MS (Theiler's Virus Infection) in SJL mice; experiment: Experimental MS (Theiler's Virus Infection): disease manifestation and MDS score; format: in vivo; conditions: 20 μg of each oligopeptide daily subcutaneous, days 14-24
Description: (§1) The BeAn strain of TMEV used in this study was generated and propagated in BHK-21 cells grown in Dulbecco's modified Eagle's medium supplemented with 7.5% donor calf serum. For i.c. infection, 30 μl of virus solution (0.2×10^6 to 6×10^6 PFU) was injected into the right cerebral hemisphere of 6- to 8-week-old SJL mice (8 animals per group) anesthetized with isoflurane. Clinical symptoms (MDS score) of disease were assessed weekly on the following grading scale: grade 0, no clinical signs; grade 1, mild waddling gait or flaccid tail; grade 2, severe waddling gait; grade 3, moderate hind limb paresis; and grade 4, severe hind limb paralysis. Serum samples collected from animals were quantified for ESAMBPCAA mediated MBP hydrolysis as specified in Example 1
(§2) At day 14 following infection mice were divided into 6 groups ([…]) and treated during 10 days (days 14-24) according following schedule: […]

[2] = system: ESAMBPCAA; experiment: Inhibition of ESAMBPCAA mediated MBP hydrolysis by synthetic oligopeptides of MBP fragment 43-68; format: biochemical, human; conditions: antibodies 30 nM, MBP 4 mkM, 16 h at 37° C.; FIG. 3
Description: (§3) MBP hydrolysis by anti MBP auto antibodies was assayed as follows: Purified antibodies (0.1-1 μg) were incubated at 37° C. for 14 h in the final volume of 12.5 μl PBS, 0.02% NaN3 containing 1-2 μg of MBP. The samples were mixed with Laemmli's buffer. The extent of MBP degradation was visualized by SDS-PAGE in Tris-glycine and Tricine buffer systems. For quantitative MBP degradation assay, MBP (10 μM) was incubated at 37° C. with antibodies (60 nM) in 0.1 ml of PBS, 0.02% NaN3 for 12 h. The reaction was stopped by adding 10% TFA up to pH 2.5. The samples were further chromatographed on column C4 4.0/150 (Waters). The amount of non-cleaved MBP was calculated by absorbance monitoring at 280 nm.
The oligopeptides were assayed for their potency to inhibit ESAMBPCAA mediated MBP hydrolysis using ESAMBPCAA collected from progressive MS Patient as specified in Example 1. Different concentrations of test peptides were mixed with both antibodies (30 nM) and MBP (4 mkM) in TBS with_0.1% NaN3_and 10 mM CaCl2. The samples were incubated for 16 h at 37° C. and analyzed on 15% SDS_PAGE. The gels were stained by Coomassie and analyzed by densitometry with TOTALLAB 2.01 software (Nonlinear Dynamics, Ltd., Newcastle upon Tyne, U.K.). […] Shortening of oligopeptide lengths to less than 6 amino acids lead to complete lack of ESAMBPCAA inhibitory activity.

[3] = system: ESAMBPCAA; experiment: ESAMBPCAA mediated MBP hydrolysis in serum of treated TMEV-infected SJL mice; format: in vivo; conditions: 20 μg of each oligopeptide daily subcutaneous, days 14-24
Description: as §3, §1, §2

[4] = system: Experimental Allergic Encephalomyelitis (EAE) in DA rats; experiment: MDS score in EAE DA rats; format: in vivo; conditions: intranasal, days 8-12; FIG. 4; dose-dependent for SEQ ID NO: 2
[5] = system: ESAMBPCAA; experiment: ESAMBPCAA mediated MBP hydrolysis in serum of treated EAE DA rats; format: in vivo; conditions: days 8-12; for rates of MBP-specific auto antibody mediated hydrolysis: median for 6 animals
[6] = system: ESAMBPCAA; experiment: ESAMBPCAA mediated MBP hydrolysis in serum samples of progressive MS patients in presence of test substances; format: biochemical, human; conditions: for MBP-specific auto antibody mediated hydrolysis: test substance 100 nM
Description: as §3
Serum samples collected from 5 patients suffering from progressive MS were quantified for ESAMBPCAA mediated MBP hydrolysis as specified in Example 1 in presence of following substances: […]

[7] = system: Experimental Allergic Encephalomyelitis (EAE) in Dark Agouti (DA) Rats; experiment: EAE induced by MBP 63-81 in DA rats: clinical signs score; format: in vivo
Description: Female Dark Agouti (DA) Rats, 8-9 weeks of age, about 110-145 g of weight were used as test animals.
For induction of Experimental Allergic Encephalomyelitis (EAE), rats were injected intradermally at the base of the tail with a total volume of 200 μl of inoculum containing 50 μg of MBP 63-81 (ANASPEC), in saline mixed (1:1) with Complete Freund Adjuvant, (IFA, Sigma), and 1 mg killed M. tuberculosis strain (strain H37 RA; Difco Laboratories, Detroit, Mich.). Beginning 24 hours after EAE induction the rats were followed up daily. On day 9 after the after EAE induction more than 50% of the rats developed signs of paralysis. The animals with multiple sclerosis signs were separated into 10 groups for beginning of treatment. Prior to treatment, blood was collected from 2 rats from each group. At day 9 and 11 after EAE induction, 90% of rats developed signs of EAE.
9-11 days after EAE induction the animals were divided into 9 groups (5-6 rats in each). Each group of rats was treated subcutaneously once daily with different claimed oligopeptide or theirs combinations (equimolar mix) (150 μg) or doses of positive control item (Glatiramer acetate, Copaxone, Teva) or negative control item (0.9% Sodium chloride solution), during 6 days as follows:
Copaxone, claimed oligopeptide and combinations thereof (Mechanical mix) were diluted with 0.9% Sodium chloride to a concentration of 450 μg/ml. Volume of 0.33 ml (150 μg/rat/day) was injected SC during 6 days.
After 6 days of the injections cycle the animals were maintained and followed up till day 28th post EAE induction. Clinical signs score was performed daily during study periods. Animals were observed individually during all study periods. In cases of extended observation period clinical signs were recorded once daily. Observations included changes in the fur, eyes, respiratory rate, vocalization, paralysis, activity and behavior pattern. Score of paralysis signs related to MS of each animal was done daily (during all study periods).
Score gradation was as follows: 0—Normal; 1—Tail weakness; 2—Hind leg weakness or paralysis; 3—Hind leg paralysis, dragging hind limbs; 4—Complete paralysis, unable to move; 5—Death.

Sequence: GGDRGAPKRGSGKDSHH [SEQ ID NO: 2]
- disease-preventive (prophylactic) activity [1]: disease-preventive (prophylactic) activity
- % Animals affected with disease at day 100 ([1]; 30 mice per group): 19(30) %
- suppression of MDS score ([1]; FIG. 5): most efficiently suppressed
- inhibition of ESAMBPCAA activity (ESAMBPCAA mediated MBP hydrolysis) [2]: most potent inhibitory activity
- ESAMBPCAA activity at day 100 [3]: 11.4 ± 3.5 pmol/min/nmol
- suppression of MBP-specific auto antibody mediated hydrolysis [3]: most efficiently suppressed
- suppression of MDS score [4]: most efficiently suppressed
- rates of MBP-specific auto antibody mediated hydrolysis ([5]; Day 8 (start of treatment), 50 μg daily intranasal): 43.1 ± 6.4 pmol/min/nmol
- rates of MBP-specific auto antibody mediated hydrolysis ([5]; Day 8 (start of treatment), 120 μg daily intranasal): 42.8 ± 5.5 pmol/min/nmol
- rates of MBP-specific auto antibody mediated hydrolysis ([5]; Day 16, 50 μg daily intranasal): 35.6 ± 4.9 pmol/min/nmol
- rates of MBP-specific auto antibody mediated hydrolysis ([5]; Day 16, 120 μg daily intranasal): 17.3 ± 5.4 pmol/min/nmol
- rates of MBP-specific auto antibody mediated hydrolysis ([5]; Day 24, 50 μg daily intranasal): 46.3 ± 2.9 pmol/min/nmol
- rates of MBP-specific auto antibody mediated hydrolysis ([5]; Day 24, 120 μg daily intranasal): 15.1 ± 3.9 pmol/min/nmol
- suppression of MBP-specific auto antibody mediated hydrolysis ([5]; intranasal, dose-dependent for SEQ ID NO: 2): most efficiently suppressed
- suppressive effect on MBP-specific auto antibody mediated hydrolysis ([6]; 100 nM, summary of Table 3): potent suppressive effect
- MBP-specific auto antibody mediated hydrolysis ([6]; Patient 1): 11.2 ± 3.5 pmol/min/nmol
- MBP-specific auto antibody mediated hydrolysis ([6]; Patient 2): 17.3 ± 4.1 pmol/min/nmol
- MBP-specific auto antibody mediated hydrolysis ([6]; Patient 3): 14.4 ± 2.2 pmol/min/nmol
- MBP-specific auto antibody mediated hydrolysis ([6]; Patient 4): 14.5 ± 4.4 pmol/min/nmol
- MBP-specific auto antibody mediated hydrolysis ([6]; Patient 5): 16.9 ± 7.3 pmol/min/nmol
- suppression of EAE clinical signs ([7]; 150 μg/rat/day SC during 6 days): most efficiently suppressed
- Clinical signs score on day 23 after induction (mean) ([7]; 150 μg/rat/day SC during 6 days from day 9-11 after EAE induction, score 0-5): 0.5
